Patent publication US20260159486A1, “BENZO[H]QUINAZOLINE-4-AMINE DERIVATIVES FOR THE TREATMENT OF CANCER” (Redona Therapeutics, Inc., priority 2021, published 2026)

Tests used:
[1] = molecular target: T1, recombinant human CLK3 (Homo sapiens, UniProt P49761); assay: CLK3 kinase assay (LANCE Ultra); type: biochemical; conditions: CLK3 0.5 nM, ATP 300 μM, 3 hours at 30° C.
T1 construct: purchased Thermo Fisher Scientific PV3826
How it was run: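 Recombinant human CLK3 (0.5 nM) with ULight-CREBtide (50 nM) and 300 μM ATP, 3 h at 30 °C in kinase buffer; EDTA stop, then Eu-anti-phospho-CREB antibody (2 nM, 1 h RT), TR-FRET read at 665/620 nm. Inhibition normalized to DMSO and no-ATP wells; IC50 from 4-parameter fit, ten 1:3 concentrations in duplicate.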

[2] = system: MDA-MB-231 cells; assay: MDA-MB-231 proliferation assay; type: cell-based; conditions: YO-PRO-1 Iodide readout
How it was run: (§1)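 Cells seeded at 750 per well, treated next day for 72 h at 37 °C with 0.5% final DMSO. Cell number read by YO-PRO-1 fluorescence after lysis, normalized to DMSO (100%) and time-zero cells (0%). GI50 from 4-parameter logistic fit, maximum constrained to 100%.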

[3] = system: CAL-51 cells; assay: CAL-51 proliferation assay; type: cell-based; conditions: YO-PRO-1 Iodide readout
How it was run: as §1

T1 sequence (P49761 whole entry): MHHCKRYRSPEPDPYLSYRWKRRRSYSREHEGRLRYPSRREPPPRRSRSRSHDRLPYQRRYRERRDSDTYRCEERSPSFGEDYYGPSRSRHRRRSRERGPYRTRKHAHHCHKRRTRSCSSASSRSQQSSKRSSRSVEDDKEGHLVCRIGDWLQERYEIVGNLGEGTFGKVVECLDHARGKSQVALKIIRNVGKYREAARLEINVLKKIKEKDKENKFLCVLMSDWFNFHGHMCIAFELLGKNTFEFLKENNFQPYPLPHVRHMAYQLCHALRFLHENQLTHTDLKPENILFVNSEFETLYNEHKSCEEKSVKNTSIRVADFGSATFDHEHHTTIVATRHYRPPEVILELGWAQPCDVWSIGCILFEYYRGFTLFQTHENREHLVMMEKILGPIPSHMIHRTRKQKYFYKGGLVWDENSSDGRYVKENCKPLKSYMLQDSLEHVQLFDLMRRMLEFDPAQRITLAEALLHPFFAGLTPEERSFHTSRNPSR

CN(CCO)c1c(O[C@H]2CC[C@@H](N)CC2)ccc2c1CC(C)(C)c1c(N)ncnc1-2 [Example 24, 2-[[4-amino-8-(cis-4-aminocyclohexoxy)-5,5-dimethyl-6H-benzo[h]quinazolin-7-yl]-methyl-amino]ethanol]
IC50 [1]: < 30 nM | GI50 ([2]; Homo sapiens, MDA-MB-231, 72 h): < 100 nM | GI50 ([3]; Homo sapiens, CAL-51, 72 h): < 100 nM

CC1(C)Cc2c(ccc(O[C@H]3CC[C@H](N)CC3)c2NCCO)-c2ncnc(N)c21 [Example 14, 2-[[4-amino-8-(trans-4-aminocyclohexoxy)-5,5-dimethyl-6H-benzo[h]quinazolin-7-yl]amino]ethanol]
IC50 [1]: < 30 nM | GI50 ([2]; Homo sapiens, MDA-MB-231, 72 h): 100 to 2000 nM | GI50 ([3]; Homo sapiens, CAL-51, 72 h): 100 to 2000 nM

CN(CCN)c1c(O[C@H]2CC[C@H](N)CC2)ccc2c1CC(C)(C)c1c(N)ncnc1-2 [Example 80, 8-(trans-4-aminocyclohexoxy)-N7-(2-aminoethyl)-N7,5,5-trimethyl-6H-benzo[h]quinazoline-4,7-diamine]
IC50 [1]: < 30 nM | GI50 ([2]; Homo sapiens, MDA-MB-231, 72 h): 100 to 2000 nM | GI50 ([3]; Homo sapiens, CAL-51, 72 h): 100 to 2000 nM

CN(CCC(=O)O)c1c(O[C@H]2CC[C@H](N)CC2)ccc2c1CC(C)(C)c1c(N)ncnc1-2 [Example 85, 3-[[4-amino-8-(trans-4-aminocyclohexoxy)-5,5-dimethyl-6H-benzo[h]quinazolin-7-yl]-methyl-amino]propanoic acid]
IC50 [1]: 30 to 100 nM | GI50 ([2]; Homo sapiens, MDA-MB-231, 72 h): > 2000 nM | GI50 ([3]; Homo sapiens, CAL-51, 72 h): > 2000 nM

CC1(C)Cc2c(ccc(O[C@H]3CC[C@H](N)CC3)c2N2CCCS2(=O)=O)-c2ncnc(N)c21 [Example 119, 8-(trans-4-aminocyclohexoxy)-7-(1,1-dioxo-1,2-thiazolidin-2-yl)-5,5-dimethyl-6H-benzo[h]quinazolin-4-amine]
IC50 [1]: < 30 nM | GI50 ([2]; Homo sapiens, MDA-MB-231, 72 h): 100 to 2000 nM | GI50 ([3]; Homo sapiens, CAL-51, 72 h): 100 to 2000 nM

Nc1ncnc2c1C1(CCCC1)Cc1c-2ccc(O[C@H]2CC[C@H](N)CC2)c1NCCO [Example 60, 2-[[4-amino-8-(4-trans-aminocyclohexoxy)spiro[6H-benzo[h]quinazoline-5,1′-cyclopentane]-7-yl]amino]ethanol]
IC50 [1]: 30 to 100 nM | GI50 ([2]; Homo sapiens, MDA-MB-231, 72 h): 100 to 2000 nM | GI50 ([3]; Homo sapiens, CAL-51, 72 h): 100 to 2000 nM

COc1ccc2c(c1N)CC(C)(C)c1c(N)ncnc1-2 [Example 2, 8-methoxy-5,5-dimethyl-6H-benzo[h]quinazoline-4,7-diamine]
IC50 [1]: 30 to 100 nM | GI50 ([2]; Homo sapiens, MDA-MB-231, 72 h): 100 to 2000 nM | GI50 ([3]; Homo sapiens, CAL-51, 72 h): 100 to 2000 nM

CC(CCC#N)c1c(O[C@H]2CC[C@H](N)CC2)ccc2c1CC(C)(C)c1c(N)ncnc1-2 (stereo partly drawn) [Example 97, 4-[4-amino-8-(trans-4-aminocyclohexoxy)-5,5-dimethyl-6H-benzo[h]quinazolin-7-yl]pentanenitrile]
IC50 [1]: < 30 nM | GI50 ([2]; Homo sapiens, MDA-MB-231, 72 h): < 100 nM | GI50 ([3]; Homo sapiens, CAL-51, 72 h): < 100 nM

CC1(C)Cc2c(ccc(O[C@H]3CC[C@H](N)CC3)c2N2CCC(C#N)C2)-c2ncnc(N)c21 (single isomer, unassigned) [Example 49, 1-[4-amino-8-(trans-4-aminocyclohexoxy)-5,5-dimethyl-6H-benzo[h]quinazolin-7-yl]pyrrolidine-3-carbonitrile]
IC50 [1]: < 30 nM | GI50 ([2]; Homo sapiens, MDA-MB-231, 72 h): < 100 nM | GI50 ([3]; Homo sapiens, CAL-51, 72 h): < 100 nM

CN(c1c(O[C@H]2CC[C@H](N)CC2)ccc2c1CC(C)(C)c1c(N)ncnc1-2)S(=O)(=O)c1ccc(F)cc1 [Example 114, N-[4-amino-8-(trans-4-aminocyclohexoxy)-5,5-dimethyl-6H-benzo[h]quinazolin-7-yl]-4-fluoro-N-methyl-benzenesulfonamide]
IC50 [1]: < 30 nM | GI50 ([2]; Homo sapiens, MDA-MB-231, 72 h): < 100 nM | GI50 ([3]; Homo sapiens, CAL-51, 72 h): < 100 nM

CN1CCOc2ccc3c(c21)CC(C)(C)c1c(N)ncnc1-3 [Example 4, 4,6,6-trimethyl-3,5-dihydro-2H-quinazolino[7,8-f][1,4]benzoxazin-7-amine]
IC50 [1]: 30 to 100 nM | GI50 ([2]; Homo sapiens, MDA-MB-231, 72 h): 100 to 2000 nM | GI50 ([3]; Homo sapiens, CAL-51, 72 h): 100 to 2000 nM

CC1(C)Cc2c(ccc(O[C@H]3CC[C@H](N)CC3)c2C(=O)NCC#N)-c2ncnc(N)c21 [Example 90, 4-amino-8-(trans-4-aminocyclohexoxy)-N-(cyanomethyl)-5,5-dimethyl-6H-benzo[h]quinazoline-7-carboxamide]
IC50 [1]: < 30 nM | GI50 ([2]; Homo sapiens, MDA-MB-231, 72 h): 100 to 2000 nM | GI50 ([3]; Homo sapiens, CAL-51, 72 h): 100 to 2000 nM

CN(CCC#N)c1c(OC2CCNCC2)ccc2c1CC(C)(C)c1c(N)ncnc1-2 [Example 93, 3-[[4-amino-5,5-dimethyl-8-(4-piperidyloxy)-6H-benzo[h]quinazolin-7-yl]-methyl-amino]propanenitrile]
IC50 [1]: < 30 nM | GI50 ([2]; Homo sapiens, MDA-MB-231, 72 h): < 100 nM | GI50 ([3]; Homo sapiens, CAL-51, 72 h): < 100 nM

CN(c1c(O[C@H]2CC[C@H](N)CC2)ccc2c1CC(C)(C)c1c(N)ncnc1-2)S(=O)(=O)CCC(N)=O [Example 86, 3-[[4-amino-8-(trans-4-aminocyclohexoxy)-5,5-dimethyl-6H-benzo[h]quinazolin-7-yl]-methyl-sulfamoyl]propanamide]
IC50 [1]: < 30 nM | GI50 ([2]; Homo sapiens, MDA-MB-231, 72 h): > 2000 nM | GI50 ([3]; Homo sapiens, CAL-51, 72 h): 100 to 2000 nM

CC1(C)Cc2c(ccc(O[C@H]3CC[C@H](N)CC3)c2N2CCC(C#N)C2)-c2ncnc(N)c21 (single isomer, unassigned) [Example 50, 1-[4-amino-8-(trans-4-aminocyclohexoxy)-5,5-dimethyl-6H-benzo[h]quinazolin-7-yl]pyrrolidine-3-carbonitrile]
IC50 [1]: < 30 nM | GI50 ([2]; 72 hours): < 100 nM | GI50 ([3]; 72 hours): < 100 nM

CN(CCO)c1c(O[C@H]2CC[C@H](N)CC2)ccc2c1CC1(CCCC1)c1c(N)ncnc1-2 [Example 59, 2-[[4-amino-8-(4-trans-aminocyclohexoxy)spiro[6H-benzo[h]quinazoline-5,1′-cyclopentane]-7-yl]-methyl-amino]ethanol]
IC50 [1]: < 30 nM | GI50 ([2]; Homo sapiens, MDA-MB-231, 72 h): 100 to 2000 nM | GI50 ([3]; Homo sapiens, CAL-51, 72 h): < 100 nM

CN(c1c(O[C@H]2CC[C@H](N)CC2)ccc2c1CC(C)(C)c1c(N)ncnc1-2)S(=O)(=O)CCC(=O)O [Example 69, 3-[[4-amino-8-(trans-4-aminocyclohexoxy)-5,5-dimethyl-6H-benzo[h]quinazolin-7-yl]-methyl-sulfamoyl]propanoic acid]
IC50 [1]: < 30 nM | GI50 ([2]; Homo sapiens, MDA-MB-231, 72 h): > 2000 nM | GI50 ([3]; Homo sapiens, CAL-51, 72 h): > 2000 nM

CC1(C)Cc2c(ccc(O[C@H]3CC[C@H](N)CC3)c2N2CCOCC2)-c2ncnc(N)c21 [Example 10, 8-(trans-4-aminocyclohexoxy)-5,5-dimethyl-7-morpholino-6H-benzo[h]quinazolin-4-amine]
IC50 [1]: 30 to 100 nM | GI50 ([2]; Homo sapiens, MDA-MB-231, 72 h): 100 to 2000 nM | GI50 ([3]; Homo sapiens, CAL-51, 72 h): 100 to 2000 nM

CC1(C)Cc2c(ccc(O[C@H]3CC[C@H](N)CC3)c2NCC2(C#N)CC2)-c2ncnc(N)c21 [Example 76, 1-[[[4-amino-8-(trans-4-aminocyclohexoxy)-5,5-dimethyl-6H-benzo[h]quinazolin-7-yl]amino]methyl]cyclopropanecarbonitrile]
IC50 [1]: 101 to 1000 nM | GI50 ([2]; Homo sapiens, MDA-MB-231, 72 h): 100 to 2000 nM | GI50 ([3]; Homo sapiens, CAL-51, 72 h): 100 to 2000 nM

CC(C)N(C)c1c(O[C@H]2CC[C@H](N)CC2)ccc2c1CC(C)(C)c1c(N)ncnc1-2 [Example 102, 8-(trans-4-aminocyclohexoxy)-N7-isopropyl-N7,5,5-trimethyl-6H-benzo[h]quinazoline-4,7-diamine]
IC50 [1]: < 30 nM | GI50 ([2]; Homo sapiens, MDA-MB-231, 72 h): 100 to 2000 nM | GI50 ([3]; Homo sapiens, CAL-51, 72 h): < 100 nM

COCCS(=O)(=O)N(C)c1c(O[C@H]2CC[C@H](N)CC2)ccc2c1CC(C)(C)c1c(N)ncnc1-2 [Example 64, N-[4-amino-8-(trans-4-aminocyclohexoxy)-5,5-dimethyl-6H-benzo[h]quinazolin-7-yl]-2-methoxy-N-methyl-ethanesulfonamide]
IC50 [1]: < 30 nM | GI50 ([2]; Homo sapiens, MDA-MB-231, 72 h): < 100 nM | GI50 ([3]; Homo sapiens, CAL-51, 72 h): < 100 nM

COc1ccc2c(c1N1CC(O)C1)CC(C)(C)c1c(N)ncnc1-2 [Example 25, 1-(4-amino-8-methoxy-5,5-dimethyl-6H-benzo[h]quinazolin-7-yl)azetidin-3-ol]
IC50 [1]: 101 to 1000 nM | GI50 ([2]; Homo sapiens, MDA-MB-231, 72 h): 100 to 2000 nM | GI50 ([3]; Homo sapiens, CAL-51, 72 h): 100 to 2000 nM

CC(C)CCN(C)c1c(O[C@H]2CC[C@H](N)CC2)ccc2c1CC(C)(C)c1c(N)ncnc1-2 [Example 104, 8-(trans-4-aminocyclohexoxy)-N7-isopentyl-N7,5,5-trimethyl-6H-benzo[h]quinazoline-4,7-diamine]
IC50 [1]: 101 to 1000 nM | GI50 ([2]; Homo sapiens, MDA-MB-231, 72 h): > 2000 nM | GI50 ([3]; Homo sapiens, CAL-51, 72 h): 100 to 2000 nM

CC1(C)Cc2c(ccc(O[C@H]3CC[C@H](N)CC3)c2NC(=O)CO)-c2ncnc(N)c21 [Example 45, N-[4-amino-8-(trans-4-aminocyclohexoxy)-5,5-dimethyl-6H-benzo[h]quinazolin-7-yl]-2-hydroxy-acetamide]
IC50 [1]: 101 to 1000 nM | GI50 ([2]; Homo sapiens, MDA-MB-231, 72 h): > 2000 nM | GI50 ([3]; Homo sapiens, CAL-51, 72 h): > 2000 nM
